Results on five molecules are retold here after ChEMBL document CHEMBL4610073, “Potential Antidiabetic Fumiquinazoline Alkaloids from the Marine-Derived Fungus Scedosporium apiospermum F41-1” (J Nat Prod, 2020).

Data set [1] has as its system 3T3-L1. The experiment in a line: Antidiabetic activity in mouse 3T3L1 preadipocytes assessed as increase in triglycerides level at 5 uM after 6 days in presence of GW9662. The data set is classed as functional, cell-based.
In data set [2] the target is T1, Peroxisome proliferator-activated receptor gamma (Mus musculus) (UniProt P37238).
T1 sequence (whole entry): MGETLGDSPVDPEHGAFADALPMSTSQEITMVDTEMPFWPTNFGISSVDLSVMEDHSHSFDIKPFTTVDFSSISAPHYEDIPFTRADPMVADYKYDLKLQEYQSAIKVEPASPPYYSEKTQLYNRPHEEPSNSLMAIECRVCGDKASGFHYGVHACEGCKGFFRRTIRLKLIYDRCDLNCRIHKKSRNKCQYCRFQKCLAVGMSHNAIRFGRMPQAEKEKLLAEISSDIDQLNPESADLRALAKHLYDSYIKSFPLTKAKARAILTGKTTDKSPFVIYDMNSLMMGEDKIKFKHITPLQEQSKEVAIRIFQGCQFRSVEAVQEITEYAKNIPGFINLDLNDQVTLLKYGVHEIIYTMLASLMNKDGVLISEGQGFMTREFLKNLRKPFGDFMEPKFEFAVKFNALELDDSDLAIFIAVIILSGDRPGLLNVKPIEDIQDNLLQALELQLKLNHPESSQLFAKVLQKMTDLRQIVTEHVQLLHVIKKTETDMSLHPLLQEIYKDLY
The experiment in a line: Agonist activity at PPARgamma in mouse 3T3L1 preadipocytes assessed as increase in C/EBPalpha mRNA expression at 5 uM after 6 days by RT-PCR analysis. The data set is classed as cell-based. Particulars: 3T3-L1.

The subject of data set [3] is 3T3-L1. The experiment in a line: Antidiabetic activity in mouse 3T3L1 preadipocytes assessed as increase in triglycerides level at 5 uM after 6 days in presence of T0070907. The data set is classed as functional, cell-based.
Data set [4] has as its target T1, Peroxisome proliferator-activated receptor gamma (Mus musculus). Kind of data set: Agonist activity at PPARgamma in mouse 3T3L1 preadipocytes assessed as increase in PPARgamma mRNA expression at 5 uM after 6 days by RT-PCR analysis. The data set is classed as cell-based. The settings on record: 3T3-L1.
Data set [5] shares this target. Kind of data set: Agonist activity at PPARgamma in mouse 3T3L1 preadipocytes assessed as increase in LXRalpha mRNA expression at 5 uM after 6 days by RT-PCR analysis. Particulars: 3T3-L1. The class given is cell-based.
Data set [6] has the same target. Kind of data set: Agonist activity at PPARgamma in mouse 3T3L1 preadipocytes assessed as increase in FABP4 mRNA expression at 5 uM after 6 days by RT-PCR analysis. The settings on record: 3T3-L1. The class given is cell-based.
In data set [7] the test system is 3T3-L1. Kind of data set: Antidiabetic activity in mouse 3T3L1 preadipocytes assessed as increase in triglycerides level at 5 uM after 3 to 6 days by ORO staining based microscopic method. The class given is functional, cell-based.
For data set [8], the system named is 3T3-L1. The experiment in a line: Antidiabetic activity in mouse 3T3L1 preadipocytes assessed as increase in triglycerides level after 6 days. Particulars: 3T3-L1, 144 h. The class given is functional, cell-based.
Data set [9] deals with T1, Peroxisome proliferator-activated receptor gamma (Mus musculus). Kind of data set: Agonist activity at PPARgamma in mouse 3T3L1 preadipocytes assessed as increase in AMPKalpha mRNA expression at 5 uM after 6 days by RT-PCR analysis. The data set is classed as cell-based. The settings on record: 3T3-L1.
In data set [10] the test system is 3T3-L1. Kind of data set: Antidiabetic activity in mouse 3T3L1 preadipocytes assessed as increase in triglycerides level at 5 uM after 6 days. The data set is classed as functional, cell-based.
Data set [11] concerns the target T1, Peroxisome proliferator-activated receptor gamma (Mus musculus). The experiment in a line: Agonist activity at PPARgamma in mouse 3T3L1 preadipocytes assessed as increase in SCD-1 mRNA expression at 5 uM after 6 days by RT-PCR analysis. The class given is cell-based. The settings on record: 3T3-L1.
The subject of data set [12] is 3T3-L1. The experiment in a line: Antidiabetic activity in mouse 3T3L1 preadipocytes assessed as increase in triglycerides level at 1 to 5 uM after 6 days by ORO staining based microscopic method. The class given is functional, cell-based.
Data set [13] deals with 3T3-L1. The experiment in a line: Cytotoxicity against mouse 3T3L1 preadipocytes assessed as reduction in cell viability at 50 uM. The settings on record: 3t3-l1, 50 µM. The data set is classed as cell-based.
Data set [14] has as its system 3T3-L1. Kind of data set: Antidiabetic activity in mouse 3T3L1 preadipocytes assessed as increase in triglycerides level at 5 uM up to 3 days by ORO staining based microscopic method. The data set is classed as functional, cell-based.

Activity calls are given as the source filed them. The calls are words filed in the database; no cut-off is given here.

A word on the EC50: it is the concentration needed to bring the measured effect to its halfway point.

Take `CC[C@@H]1N[C@@H]2N(C1=O)c1ccccc1[C@@]2(O)C[C@@H]1C(=O)NC(=C(C)C)c2nc3ccccc3c(=O)n21`: the result in the data set on 3T3-L1 [1] and in the data set with 3T3-L1 [3] was inactive. The outcome (in data set [2]; in [4]; in [5]; in [6]; with 3T3-L1 [7]; in [9]) was Active. The outcome (with 3T3-L1 [10]; in data set [11]; in the data set on 3T3-L1 [12]; in the data set with 3T3-L1 [14]) was Active. In the data set with 3T3-L1 [8], the concentration for a half-maximal effect (EC50) came out at 270 nM. Besides, the Activity result in the data set on 3T3-L1 [13] was “Non-Toxic”.

In the case of `CC(C)=C1NC(=O)[C@@H](C[C@]2(O)c3ccccc3N3C(=O)C(C)(C)N[C@H]32)n2c1nc1ccccc1c2=O`, the result with 3T3-L1 [7], with 3T3-L1 [10], in the data set on 3T3-L1 [12] and in the data set with 3T3-L1 [14] was Active. Further, in the data set with 3T3-L1 [8], the EC50 was 2340 nM. Besides, the Activity entry with 3T3-L1 [13] was “Non-Toxic”.

In the case of `CN(CCOc1ccc(CC2SC(=O)NC2=O)cc1)c1ccccn1` (stereo unspecified) [ROSIGLITAZONE], the EC50 with 3T3-L1 [8] is 120 nM.

Take `C/C=C1\NC(=O)[C@@H](Cc2c[nH]c3ccccc23)n2c1nc1ccccc1c2=O`: the result with 3T3-L1 [7], in the data set on 3T3-L1 [10], in the data set with 3T3-L1 [12] and in the data set with 3T3-L1 [14] was Active. The half-maximal effective concentration (EC50) in the data set on 3T3-L1 [8] worked out at 1030 nM. The Activity result in the data set with 3T3-L1 [13] is “Non-Toxic”.

For `CC(C)=C1NC(=O)[C@@H](C[C@]2(O)c3ccccc3N3C(=O)[C@H](C(C)C)N[C@H]32)n2c1nc1ccccc1c2=O`, the outcome in the data set on 3T3-L1 [1] and with 3T3-L1 [3] was inactive. The result (in data set [2]; in data set [4]; in [5]; in [6]; with 3T3-L1 [7]; in [9]) was Active. Also, the result (in the data set on 3T3-L1 [10]; in data set [11]; in the data set with 3T3-L1 [12]; in the data set on 3T3-L1 [14]) was Active. Further, the EC50 in the data set on 3T3-L1 [8] turned out to be 360 nM. The Activity entry with 3T3-L1 [13] is “Non-Toxic”.
